As usually defined, the inhibition is the percentage by which the read-out fell short of the control. A higher inhibition goes with a strong effect.

The target in assay [1] is T1, Farnesyl-protein transferase (FTase) from bovine brain (Bos taurus, UniProt P29702+P49355).
T1 construct: Farnesyl-protein transferase (FTase) from bovine brain; from tissue; host or cells: bovine brain, partially purified (DEAE-Sephacel, N-octyl agarose, Mono Q HPLC)
The assay is described as follows: In vitro inhibition of Ras Farnesyl Transferase. It is filed as biochemical. The conditions noted are these: Ras-CVLS 3.5 μM, [3H]FPP 0.25 μM, partially purified bovine brain FTase; read-out: IC50 (concentration of compound which gives 50% inhibition of FTase). The procedure: In vitro inhibition of Ras Farnesyl Transferase […] Ras-CVLS at 3.5 μ[…], and the indicated compounds were incubated with this partially purified enzyme preparation. The FTase data presented below is a measurement of the ability of the test compound to inhibit Ras farnesylation in vitro. | *(IC50 is the concentration of compound which gives 50% inhibition o | FTase under the described assay conditions)

Assay [2] relates to Ras farnesylation in the v-ras cell line (Ha-ras p21). The assay is described as follows: In vivo ras farnesylation assay (v-ras cell line). Type of assay: cell-based. The protocol:
In vivo ras farnesylation assay
The cell line used in this assay was the v-ras line, which expressed vital Ha-ras p21. The assay was performed essentially as described in DeClue, J. E. et. al., Cancer Reasearch 51, 712-717, (1991). Cells in 10 cm dishes at 50-75% confluency were treated with the test compound (final concentration of solvent, methanol or dimethyl sulfoxide, was 0.1%). After 4 hours at 37° C., the cells were labelled in 3 ml methionine-free DMEM supplemeted with 10% regular DMEM, 2% fetal bovine serum and 400 μCi[^35 S] methionine (1000 Ci/mmol). After an additional 20 hours, the cells were lysed in 1 ml lysis buffer (1% NP40/20 nnM HEPES, pH 7.5/5 mM MgCl2 /1 mM DTT/10 μg/ml aprotinen/2 μg/ml leupeptin/2 μg/ml antipain/0.5 mM PMSF) and the lysates cleared by centrifugation at 100,000×g for 45 min. Aliqouts of lysates containing equal numbers of acid-precipitable counts were brought to 1 ml with IP buffer (lysis buffer lacking DTT) and immunoprecipitated with the ras-specific monoclonal antibody Y13-259 (Furth, M. E. et al., J. Virol. 43, 294-304, (1982)). Following a 2 hour antibody incubation at 4° C., 200 μl of a 25% suspension of protein A-Sepharose coated with rabbit anti rat IgG was added for 45 min. […]

In assay [3] the test system is Ras farnesylation. As to conditions: literature; cited from earlier work.

In the case of `CC[C@H](C)[C@H](NC[C@@H](N)CS)C(=O)N[C@H](C(=O)N[C@@H](CCCO)C(=O)O)[C@@H](C)CC`, the IC50 in assay [1] came out at 24 nM.

`CC[C@H](C)[C@H](NC[C@@H](NC[C@@H](N)CS)[C@@H](C)CC)C(=O)N[C@H]1CCOC1=O` [N-[2(S)-(2(R)-amino-3-mercaptopropylamino)-3(S)-methylpentyl]isoleucyl-homoserine lactone] registered an inhibition at 100 µM in assay [2] (at 100 μM test concentration, 4 hours then additional 20 hours with [35S]methionine) of 90%. Moreover, in assay [1], the IC50 amounted to 950 nM.

Take `CC[C@H](C)[C@H](NC[C@@H](NC[C@@H](N)CS)[C@@H](C)CC)C(=O)N[C@@H](CCO)C(=O)O` [N-[2(S)-(2(R)-amino-3-mercaptopropylamino)-3(S)-methylpentyl]isoleucyl-homoserine]: in assay [2] (result in words, test concentration not printed for this compound), the “Inhibition of Ras farnesylation” value is “No Inhibition”. The IC50 in assay [1] came out at 12 nM.

Take `CC[C@H](C)[C@H](NC[C@@H](N)CS)C(=O)N[C@H](C(=O)N[C@H]1CCCOC1=O)[C@@H](C)CC` [N-[N'-(2(R)-amino-3-mercaptopropyl)isoleucyl-isoleucyl]-3(S)-aminotetrahydropyran-2-one]: the IC50 in assay [1] is 470 nM.

With `CC[C@H](C)C(=O)O[C@H]1CCC=C2C=C[C@H](C)[C@H](CC[C@@H]3C[C@@H](O)CC(=O)O3)[C@H]21` [compactin], in assay [3], the “Inhibition of Ras farnesylation in vivo” value is given as “Inhibition of Ras farnesylation in vivo has been demonstrated”.

With `CC[C@H](C)C(=O)O[C@H]1C[C@@H](C)C=C2C=C[C@H](C)[C@H](CC[C@@H]3C[C@@H](O)CC(=O)O3)[C@H]21` [lovastatin], in assay [3], the “Inhibition of Ras farnesylation in vivo” value is given as “Inhibition of Ras farnesylation in vivo has been demonstrated”.

These data come from patent US5480893A, “Inhibitors of farnesyl protein transferase” (Merck & Co., Inc., priority 1994, dated 1996).
